Assay results taken from BindingDB's records for doi:10.1016/0014-2999(95)00786-5 (Cnrs Upr 9023, 1996).
Several values for one entry are separate records, joined by “and”; a condition that tells them apart may be missing. Identical values can stand only once. Counter-ions that a name gives are not always drawn.

How the values were obtained:
[1] = molecular target: 5-hydroxytryptamine receptor 4 (Mus musculus, UniProt P97288)
[2] = molecular target: 5-hydroxytryptamine receptor 4 (Homo sapiens, UniProt Q13639)
5-hydroxytryptamine receptor 4 (Homo sapiens, UniProt Q13639), sequence (Q13639 whole entry): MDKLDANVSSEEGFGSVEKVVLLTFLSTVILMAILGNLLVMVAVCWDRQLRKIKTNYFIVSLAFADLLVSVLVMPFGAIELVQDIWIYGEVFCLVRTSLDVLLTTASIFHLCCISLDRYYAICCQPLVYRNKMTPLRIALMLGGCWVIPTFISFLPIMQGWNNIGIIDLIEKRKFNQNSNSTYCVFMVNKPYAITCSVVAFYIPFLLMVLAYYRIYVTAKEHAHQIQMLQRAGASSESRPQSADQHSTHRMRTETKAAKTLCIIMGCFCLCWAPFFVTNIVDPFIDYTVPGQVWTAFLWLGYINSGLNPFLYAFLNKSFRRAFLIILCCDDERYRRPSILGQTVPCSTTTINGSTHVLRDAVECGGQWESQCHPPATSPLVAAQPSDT

5-hydroxytryptamine receptor 4 (Mus musculus, UniProt P97288), sequence (P97288 whole entry): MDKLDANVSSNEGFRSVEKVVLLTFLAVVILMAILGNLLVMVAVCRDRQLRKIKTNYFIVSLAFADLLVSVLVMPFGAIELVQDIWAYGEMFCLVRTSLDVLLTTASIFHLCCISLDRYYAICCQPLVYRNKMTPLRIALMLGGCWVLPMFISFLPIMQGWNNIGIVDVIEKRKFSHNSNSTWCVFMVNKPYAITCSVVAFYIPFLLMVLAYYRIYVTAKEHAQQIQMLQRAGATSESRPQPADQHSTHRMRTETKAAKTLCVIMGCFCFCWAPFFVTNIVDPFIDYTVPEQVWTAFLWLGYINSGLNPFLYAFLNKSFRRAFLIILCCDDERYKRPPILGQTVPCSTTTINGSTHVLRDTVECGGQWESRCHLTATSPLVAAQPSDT

Compound | Ki [1] | Ki [2]
CN1C2CCC1CC(OC(=O)c1c[nH]c3ccccc13)C2 (stereo not drawn) | 158 nM | 200 nM
COc1ccc2[nH]cc(C3=CCCNC3)c2c1 | 603 nM | 
COc1cc(N)c(Cl)cc1C(=O)NC1CCN(CCCC(=O)N2CCC(N(C)C)CC2)CC1OC (stereo not drawn) [4-Amino-5-chloro-N-(1-{4-[4-(dimethylamino)-1-piperidinyl]-4-oxobutyl}-3-methoxy-4-piperidinyl)-2-methoxybenzamide] | 1.38 nM | 
COc1cc(N)c(Cl)cc1C(=O)NC1CCN(Cc2ccccc2)CC1 [4-Amino-N-(1-benzyl-piperidin-4-yl)-5-chloro-2-methoxy-benzamide(Clebopride)] | 53.7 nM | 
COc1cc(N)c(Cl)cc1C(=O)NC1CCN(CCCOc2ccc(F)cc2)CC1OC (stereo not drawn) [4-amino-5-chloro-N-(1-(3-(4-fluorophenoxy)propyl)-3-methoxypiperidin-4-yl)-2-methoxybenzamide] | 51.3 nM | 
CCN(CC)CCNC(=O)c1cc(Cl)c(N)cc1OC [4-amino-5-chloro-N-[2-(diethylamino)ethyl]-2-methoxy-benzamide;hydrochloride] | 3980 nM | 
CCn1c(=O)n(C(=O)NC2CC3CCC(C2)N3C)c2ccccc21 (stereo not drawn) [BIMU 1] | 53.7 nM | 
CC(C)n1c(=O)n(C(=O)NC2C[C@H]3CC[C@@H](C2)N3C)c2ccccc21 (stereo partly drawn) [BIMU 8] | 25.1 nM | 79.4 nM
CN1C2CCC1CC(NC(=O)n1c(=O)[nH]c3ccccc31)C2 (stereo not drawn) [DAU 6215] | 224 nM | 
COc1ccc2[nH]c(=O)n(C(=O)OC3CC4CCC(C3)N4C)c2c1 (stereo not drawn) [DAU 6285] | 26.9 nM | 63.1 nM
Cn1cc(C(=O)OCC2CCN(CCNS(C)(=O)=O)CC2)c2ccccc21 [GR 113808] | 0.31 nM | 
COc1[nH]c2ccc(F)cc2c1C(=O)OCC1CCN(CCNS(C)(=O)=O)CC1 [GR-125487] | 0.03 nM | 
COc1cc(N)c(Cl)cc1C(=O)NC1CCN2CCCC1C2 (stereo not drawn) [NSC_3035240] | 97.7 nM | 
CCCC[N+]12CCC(C1)C(NC(=O)c1cc(Cl)c(N)cc1OC)CC2 (stereo not drawn) [SB205149] | 37.1 nM | 
CCN(CC)CCOC(=O)c1cc(Cl)c(N)cc1OC [SDZ-205557] | 6.3 nM | 6.3 nM
COc1cc(N)c(Cl)cc1C(=O)NC1CN2CCC1CC2 (stereo not drawn) [ZACOPRIDE,R] | 1070 nM and 302 nM and 224 nM | 
NCCc1c[nH]c2ccc(O)cc12 [[3H]-5-HT] | 79.4 nM | 
COc1ccc2[nH]cc(CCN)c2c1 [tryptamine, 5-Methoxy] | 525 nM | 501 nM
